Experimental data published in the kinase profiling compilation of Christmann-Franck et al. (2016).

Assays:
CDK2 CCNA2 (human) = CDK2 CCNA2 (human) (UniProt P20248+P24941)
DYRK3 (human) = DYRK3 (human) (UniProt O43781)
MAPK12 (human) = MAPK12 (human) (UniProt P53778)
FGFR1 (human) = FGFR1 (human) (UniProt P11362)
STK3 (human) = STK3 (human) (UniProt Q13188)
MAPK13 (human) = MAPK13 (human) (UniProt O15264)
DYRK2 (human) = DYRK2 (human) (UniProt Q92630)
IGF1R (human) = IGF1R (human) (UniProt P08069)
PLK1 (human) = PLK1 (human) (UniProt P53350)
Sequence of PLK1 (human) (P53350 whole entry, looked up): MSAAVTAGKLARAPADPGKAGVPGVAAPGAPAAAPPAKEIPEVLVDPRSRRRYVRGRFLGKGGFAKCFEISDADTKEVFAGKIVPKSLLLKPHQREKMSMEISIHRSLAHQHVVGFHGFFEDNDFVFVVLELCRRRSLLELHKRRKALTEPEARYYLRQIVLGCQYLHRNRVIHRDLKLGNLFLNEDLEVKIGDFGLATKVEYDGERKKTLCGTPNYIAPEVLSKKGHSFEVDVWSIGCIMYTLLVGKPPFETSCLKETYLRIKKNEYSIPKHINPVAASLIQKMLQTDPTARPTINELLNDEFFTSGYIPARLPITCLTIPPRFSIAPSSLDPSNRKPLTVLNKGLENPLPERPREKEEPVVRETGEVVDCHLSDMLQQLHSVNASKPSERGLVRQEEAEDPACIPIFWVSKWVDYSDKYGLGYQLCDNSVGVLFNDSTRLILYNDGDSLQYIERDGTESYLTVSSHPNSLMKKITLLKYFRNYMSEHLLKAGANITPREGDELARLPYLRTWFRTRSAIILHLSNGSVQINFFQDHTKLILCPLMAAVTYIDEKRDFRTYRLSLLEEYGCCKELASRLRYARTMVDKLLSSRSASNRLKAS

PIM1 (human) = PIM1 (human) (UniProt P11309)
MAPK15 (human) = MAPK15 (human) (UniProt Q8TD08)
BRSK2 (human) = BRSK2 (human) (UniProt Q8IWQ3)
Sequence of BRSK2 (human) (Q8IWQ3 whole entry, looked up): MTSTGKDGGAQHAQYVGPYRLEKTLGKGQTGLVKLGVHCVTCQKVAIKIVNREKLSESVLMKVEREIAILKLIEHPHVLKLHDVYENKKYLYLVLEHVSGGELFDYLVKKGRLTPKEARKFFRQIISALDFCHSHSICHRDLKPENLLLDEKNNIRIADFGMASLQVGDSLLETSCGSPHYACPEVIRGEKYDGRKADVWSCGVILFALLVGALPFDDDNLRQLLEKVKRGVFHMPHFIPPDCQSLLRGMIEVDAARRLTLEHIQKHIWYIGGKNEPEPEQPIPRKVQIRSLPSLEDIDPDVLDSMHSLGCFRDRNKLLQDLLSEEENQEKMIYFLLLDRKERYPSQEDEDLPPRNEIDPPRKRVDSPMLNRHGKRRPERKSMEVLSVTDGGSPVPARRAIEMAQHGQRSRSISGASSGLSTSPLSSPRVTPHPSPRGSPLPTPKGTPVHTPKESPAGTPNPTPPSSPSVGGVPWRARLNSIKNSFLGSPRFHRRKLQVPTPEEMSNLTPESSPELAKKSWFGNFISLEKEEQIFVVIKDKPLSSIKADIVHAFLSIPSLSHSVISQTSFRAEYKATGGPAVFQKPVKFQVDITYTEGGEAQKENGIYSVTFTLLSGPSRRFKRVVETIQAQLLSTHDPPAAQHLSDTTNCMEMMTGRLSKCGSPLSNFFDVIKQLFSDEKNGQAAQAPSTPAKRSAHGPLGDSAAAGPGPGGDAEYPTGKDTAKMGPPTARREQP

PAK7 (human) = PAK7 (human) (UniProt Q9P286); conditions: compound 10.0 µM
EPHA2 (human) = EPHA2 (human) (UniProt P29317)
Sequence of EPHA2 (human) (P29317 whole entry, looked up): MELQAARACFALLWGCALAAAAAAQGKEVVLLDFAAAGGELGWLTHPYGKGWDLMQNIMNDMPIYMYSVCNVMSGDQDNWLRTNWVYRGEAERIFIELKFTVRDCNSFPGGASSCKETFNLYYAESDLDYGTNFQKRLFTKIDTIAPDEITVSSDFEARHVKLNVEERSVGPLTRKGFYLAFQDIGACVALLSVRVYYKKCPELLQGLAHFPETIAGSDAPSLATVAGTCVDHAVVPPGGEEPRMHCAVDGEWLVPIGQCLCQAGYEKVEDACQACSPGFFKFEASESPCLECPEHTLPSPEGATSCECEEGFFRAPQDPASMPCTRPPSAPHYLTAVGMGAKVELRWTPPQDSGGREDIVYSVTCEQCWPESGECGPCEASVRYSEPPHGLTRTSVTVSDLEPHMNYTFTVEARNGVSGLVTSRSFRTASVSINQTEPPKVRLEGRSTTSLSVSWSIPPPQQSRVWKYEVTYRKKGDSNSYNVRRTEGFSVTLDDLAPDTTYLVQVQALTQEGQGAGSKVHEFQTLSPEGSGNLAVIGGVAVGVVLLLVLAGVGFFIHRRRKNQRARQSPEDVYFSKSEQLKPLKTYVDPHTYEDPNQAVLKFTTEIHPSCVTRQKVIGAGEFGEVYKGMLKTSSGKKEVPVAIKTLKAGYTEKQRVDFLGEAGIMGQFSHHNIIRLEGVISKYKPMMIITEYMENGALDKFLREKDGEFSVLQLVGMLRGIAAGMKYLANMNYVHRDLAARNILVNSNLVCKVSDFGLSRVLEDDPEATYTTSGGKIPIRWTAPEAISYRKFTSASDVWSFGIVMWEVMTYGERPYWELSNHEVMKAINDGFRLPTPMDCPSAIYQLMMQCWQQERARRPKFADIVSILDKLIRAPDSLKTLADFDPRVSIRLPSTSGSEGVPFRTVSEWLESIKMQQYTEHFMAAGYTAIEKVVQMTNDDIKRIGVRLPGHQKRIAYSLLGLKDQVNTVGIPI

CSNK1D (human) = CSNK1D (human) (UniProt P48730)
CSNK2A1 (human) = CSNK2A1 (human) (UniProt P68400); conditions: compound 10.0 µM
BTK (human) = BTK (human) (UniProt Q06187)
Sequence of BTK (human) (Q06187 whole entry, looked up): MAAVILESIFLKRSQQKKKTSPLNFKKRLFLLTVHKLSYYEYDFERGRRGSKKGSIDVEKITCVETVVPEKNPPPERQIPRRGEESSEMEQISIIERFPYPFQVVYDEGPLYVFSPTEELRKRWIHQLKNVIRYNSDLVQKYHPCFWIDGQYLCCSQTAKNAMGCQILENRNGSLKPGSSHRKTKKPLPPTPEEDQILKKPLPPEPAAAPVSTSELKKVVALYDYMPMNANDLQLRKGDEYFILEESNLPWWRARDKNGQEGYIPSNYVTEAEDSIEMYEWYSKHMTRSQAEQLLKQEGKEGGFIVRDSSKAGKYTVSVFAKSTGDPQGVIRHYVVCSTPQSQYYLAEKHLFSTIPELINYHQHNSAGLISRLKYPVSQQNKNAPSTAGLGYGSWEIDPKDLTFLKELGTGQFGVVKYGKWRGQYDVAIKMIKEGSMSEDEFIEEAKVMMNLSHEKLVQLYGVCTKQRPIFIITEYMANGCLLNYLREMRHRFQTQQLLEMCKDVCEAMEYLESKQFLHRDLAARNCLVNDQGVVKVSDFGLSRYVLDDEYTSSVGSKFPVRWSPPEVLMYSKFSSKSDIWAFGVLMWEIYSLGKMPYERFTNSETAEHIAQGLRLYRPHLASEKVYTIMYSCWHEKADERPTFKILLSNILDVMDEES

PRKCZ (human) = PRKCZ (human) (UniProt Q05513)
Sequence of PRKCZ (human) (Q05513 whole entry, looked up): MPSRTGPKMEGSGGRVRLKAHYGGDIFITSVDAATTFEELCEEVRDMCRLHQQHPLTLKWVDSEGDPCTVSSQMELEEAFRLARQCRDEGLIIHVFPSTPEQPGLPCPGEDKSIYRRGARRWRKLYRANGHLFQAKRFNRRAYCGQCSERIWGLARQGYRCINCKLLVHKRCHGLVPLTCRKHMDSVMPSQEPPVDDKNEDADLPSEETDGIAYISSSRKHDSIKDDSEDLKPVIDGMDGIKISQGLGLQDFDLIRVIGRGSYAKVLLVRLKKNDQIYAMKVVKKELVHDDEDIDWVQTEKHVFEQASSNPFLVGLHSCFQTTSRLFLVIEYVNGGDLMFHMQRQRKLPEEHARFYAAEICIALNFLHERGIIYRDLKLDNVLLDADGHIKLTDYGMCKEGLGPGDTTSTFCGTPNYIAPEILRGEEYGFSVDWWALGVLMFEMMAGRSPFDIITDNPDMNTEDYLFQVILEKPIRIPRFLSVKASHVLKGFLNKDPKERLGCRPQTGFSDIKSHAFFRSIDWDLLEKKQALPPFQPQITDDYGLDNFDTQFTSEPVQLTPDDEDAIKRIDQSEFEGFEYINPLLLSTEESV

RPS6KA5 KD1 KD2 (human) = RPS6KA5 KD1 KD2 (human) (UniProt O75582); conditions: compound 1.0 µM
IKBKE (human) = IKBKE (human) (UniProt Q14164)
MKNK1 (human) = MKNK1 (human) (UniProt Q9BUB5)
MARK3 (human) = MARK3 (human) (UniProt P27448)
MAPK1 (human) = MAPK1 (human) (UniProt P28482)
Sequence of MAPK1 (human) (P28482 whole entry, looked up): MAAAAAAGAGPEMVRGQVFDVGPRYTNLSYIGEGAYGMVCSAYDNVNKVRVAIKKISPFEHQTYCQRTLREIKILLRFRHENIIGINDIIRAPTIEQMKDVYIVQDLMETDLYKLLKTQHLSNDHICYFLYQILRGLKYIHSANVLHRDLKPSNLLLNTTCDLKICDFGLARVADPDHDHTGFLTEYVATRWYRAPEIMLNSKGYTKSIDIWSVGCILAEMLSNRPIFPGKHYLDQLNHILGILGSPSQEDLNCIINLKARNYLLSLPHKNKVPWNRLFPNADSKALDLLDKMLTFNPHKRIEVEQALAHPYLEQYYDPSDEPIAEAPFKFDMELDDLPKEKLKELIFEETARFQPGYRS

NEK2 (human) = NEK2 (human) (UniProt P51955)
Sequence of NEK2 (human) (P51955 whole entry, looked up): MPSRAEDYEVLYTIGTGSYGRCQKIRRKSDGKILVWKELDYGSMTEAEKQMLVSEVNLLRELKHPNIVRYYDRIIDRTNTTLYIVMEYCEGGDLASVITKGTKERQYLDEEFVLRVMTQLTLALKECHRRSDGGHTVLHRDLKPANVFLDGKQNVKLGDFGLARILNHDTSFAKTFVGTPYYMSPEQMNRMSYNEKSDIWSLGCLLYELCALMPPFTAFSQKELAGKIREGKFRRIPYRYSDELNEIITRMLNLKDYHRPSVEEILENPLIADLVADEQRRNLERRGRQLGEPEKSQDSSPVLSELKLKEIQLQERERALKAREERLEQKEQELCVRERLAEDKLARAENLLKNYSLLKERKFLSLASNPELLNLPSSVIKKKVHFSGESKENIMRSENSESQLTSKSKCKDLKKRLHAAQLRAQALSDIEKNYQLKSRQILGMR

TBK1 (human) = TBK1 (human) (UniProt Q9UHD2)
MAPKAPK2 (human) = MAPKAPK2 (human) (UniProt P49137)
CAMKK2 (human) = CAMKK2 (human) (UniProt Q96RR4)
FLT1 (human) = FLT1 (human) (UniProt P17948)
MAPK9 (human) = MAPK9 (human) (UniProt P45984); conditions: compound 1.0 µM
MELK (human) = MELK (human) (UniProt Q14680)
PAK6 (human) = PAK6 (human) (UniProt Q9NQU5)
Sequence of PAK6 (human) (Q9NQU5 whole entry, looked up): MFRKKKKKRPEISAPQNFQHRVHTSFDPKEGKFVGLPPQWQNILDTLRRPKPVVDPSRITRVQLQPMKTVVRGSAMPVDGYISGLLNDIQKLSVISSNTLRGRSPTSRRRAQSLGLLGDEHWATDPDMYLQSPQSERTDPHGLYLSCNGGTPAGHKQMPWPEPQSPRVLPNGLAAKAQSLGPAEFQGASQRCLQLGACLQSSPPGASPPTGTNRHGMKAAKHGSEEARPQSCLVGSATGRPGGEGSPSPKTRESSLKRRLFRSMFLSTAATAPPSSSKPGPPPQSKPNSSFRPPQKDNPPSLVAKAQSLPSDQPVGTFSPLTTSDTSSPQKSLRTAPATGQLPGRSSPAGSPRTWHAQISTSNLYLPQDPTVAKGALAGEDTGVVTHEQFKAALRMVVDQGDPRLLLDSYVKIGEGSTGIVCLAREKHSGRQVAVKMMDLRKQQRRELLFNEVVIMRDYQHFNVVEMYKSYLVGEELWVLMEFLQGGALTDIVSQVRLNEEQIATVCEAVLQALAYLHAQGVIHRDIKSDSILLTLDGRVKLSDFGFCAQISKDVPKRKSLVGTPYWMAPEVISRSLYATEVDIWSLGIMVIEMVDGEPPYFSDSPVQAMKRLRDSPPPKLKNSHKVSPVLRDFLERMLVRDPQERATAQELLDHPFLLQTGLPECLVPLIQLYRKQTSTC

PKN2 (human) = PKN2 (human) (UniProt Q16513)
IKBKB (human) = IKBKB (human) (UniProt O14920)
ROCK2 (rat) = conditions: accession and sequence are those of the human protein

## CCC(=O)N1CCN(c2ccc(-n3c(=O)ccc4cnc5ccc(-c6cnc7ccccc7c6)cc5c43)cc2C(F)(F)F)CC1
CDK2 CCNA2 (human); compound 1.0 µM
  per cent of control: 108%
CDK2 CCNA2 (human); compound 10.0 µM
  per cent of control: 77%
DYRK3 (human); compound 1.0 µM
  per cent of control: 88%
DYRK3 (human); compound 10.0 µM
  per cent of control: 52%
MAPK12 (human); compound 1.0 µM
  per cent of control: 103%
MAPK12 (human); compound 10.0 µM
  per cent of control: 129%
FGFR1 (human); compound 1.0 µM
  per cent of control: 110%
FGFR1 (human); compound 10.0 µM
  per cent of control: 79%
STK3 (human); compound 1.0 µM
  per cent of control: 97%
STK3 (human); compound 10.0 µM
  per cent of control: 79%
MAPK13 (human); compound 1.0 µM
  per cent of control: 106%
MAPK13 (human); compound 10.0 µM
  per cent of control: 97%
DYRK2 (human); compound 1.0 µM
  per cent of control: 99%
DYRK2 (human); compound 10.0 µM
  per cent of control: 99%
IGF1R (human); compound 1.0 µM
  per cent of control: 100%
IGF1R (human); compound 10.0 µM
  per cent of control: 93%
PLK1 (human); compound 1.0 µM
  per cent of control: 94%
PLK1 (human); compound 10.0 µM
  per cent of control: 84%
PIM1 (human); compound 1.0 µM
  per cent of control: 82%
PIM1 (human); compound 10.0 µM
  per cent of control: 24%
MAPK15 (human); compound 1.0 µM
  per cent of control: 78%
MAPK15 (human); compound 10.0 µM
  per cent of control: 46%
BRSK2 (human); compound 1.0 µM
  per cent of control: 102%
BRSK2 (human); compound 10.0 µM
  per cent of control: 104%
PAK7 (human)
  per cent of control: 61%
EPHA2 (human); compound 1.0 µM
  per cent of control: 120%
EPHA2 (human); compound 10.0 µM
  per cent of control: 87%
CSNK1D (human); compound 1.0 µM
  per cent of control: 93%
CSNK1D (human); compound 10.0 µM
  per cent of control: 104%
CSNK2A1 (human)
  per cent of control: 95%
BTK (human); compound 1.0 µM
  per cent of control: 104%
BTK (human); compound 10.0 µM
  per cent of control: 56%
PRKCZ (human); compound 1.0 µM
  per cent of control: 121%
PRKCZ (human); compound 10.0 µM
  per cent of control: 106%
RPS6KA5 KD1 KD2 (human)
  per cent of control: 86%
IKBKE (human); compound 1.0 µM
  per cent of control: 96%
IKBKE (human); compound 10.0 µM
  per cent of control: 85%
MKNK1 (human); compound 1.0 µM
  per cent of control: 93%
MKNK1 (human); compound 10.0 µM
  per cent of control: 96%
MARK3 (human); compound 1.0 µM
  per cent of control: 99%
MARK3 (human); compound 10.0 µM
  per cent of control: 98%
MAPK1 (human); compound 1.0 µM
  per cent of control: 102%
MAPK1 (human); compound 10.0 µM
  per cent of control: 90%
NEK2 (human); compound 1.0 µM
  per cent of control: 88%
NEK2 (human); compound 10.0 µM
  per cent of control: 99%
TBK1 (human); compound 1.0 µM
  per cent of control: 96%
TBK1 (human); compound 10.0 µM
  per cent of control: 87%
MAPKAPK2 (human); compound 1.0 µM
  per cent of control: 102%
MAPKAPK2 (human); compound 10.0 µM
  per cent of control: 108%
CAMKK2 (human); compound 1.0 µM
  per cent of control: 95%
CAMKK2 (human); compound 10.0 µM
  per cent of control: 81%
FLT1 (human); compound 1.0 µM
  per cent of control: 108%
FLT1 (human); compound 10.0 µM
  per cent of control: 84%
MAPK9 (human)
  per cent of control: 98%
MELK (human); compound 1.0 µM
  per cent of control: 63%
MELK (human); compound 10.0 µM
  per cent of control: 17%
PAK6 (human); compound 1.0 µM
  per cent of control: 110%
PAK6 (human); compound 10.0 µM
  per cent of control: 80%
PKN2 (human); compound 1.0 µM
  per cent of control: 97%
PKN2 (human); compound 10.0 µM
  per cent of control: 114%
IKBKB (human); compound 1.0 µM
  per cent of control: 109%
IKBKB (human); compound 10.0 µM
  per cent of control: 63%
ROCK2 (rat); compound 1.0 µM
  per cent of control: 96%
ROCK2 (rat); compound 10.0 µM
  per cent of control: 101%
